“Also recorded” adds a separate entry of the source.
Experiments:
[1] = test system: retinal ganglionic cells (RGC); test: Rat NMDA model: retinal flat mounts, RGC count; type: in vivo; conditions: NMDA model, retinal flat mounts
Description: (§1) Rat NMDA Model. To mimic glaucomatous damage to the retina without a potentially confounding effect on IOP, retinal damage was induced by NMDA in a rat model. Following baseline measurements, e.g. IOP, ERG, slit lamp, fundus photography, heart rate and blood pressure, N-methyl D-aspartate (NMDA, 2 μl of 10 mM) was injected intravitreally to induce RGC damage. […] For positive identification, a hand scanner was used each time the rat was examined. This was necessary since the examiners will be masked as to treatment group. Treatment groups consisted of either NMDA only (control), O-1812 (0.1%) or O-2545 (0.1%), O-1812 (0.1%)+SR-141716 (2 mM), O-2545 (0.1%)+SR-141716 (2 mM), O-1812 (0.1%)+SR-144258 (2 mM) and O-2545 (0.1%)+SR-144258 (2 mM). All experiments were conducted in accordance with the policies of the Institutional Animal Care and Use Committee and the ARVO policy on use of animals in experiments. A minimum of two baseline ERG measurements was recorded 1 wk prior, 1 wk and 2 wk post injection. At the end of each experiment, rats were sacrificed and their eyes were preserved for histological assessment of effects on the retina and optic nerve.
Histology. For retinal flat mounts, retinas were dissected from formalin fixed whole eyes, mounted on superfrost glass slides, stained with hematoxylin and eosin and digitally photographed. For analysis, the retina was divided into four quadrants. A minimum of five 50 μm^2 sections per quadrant were used to count cell number. The cell sections were selected to be equidistant from the optic cup for all quadrants. For optic nerve experiments, the optic nerve was dissected at the margin of the optic disk and embedded in cryo media. Sections of 10 μm thickness were cut and mounted on superfrost glass slides and stained with hematoxylin and eosin. The slides were digitally photographed.

[2] = test system: IOP in a rat glaucoma model; test: Combination therapy: IOP in a rat glaucoma model; type: in vivo, Sprague Dawley rats; conditions: 1.0% topical alone, 120 min
Source text: (§2) Rat Glaucoma Model. Compared to acute studies, a chronic rat model of glaucoma was generated. The rats were made glaucomatous by ligating three vortex veins (Hosseini, A. et al. (2006) Chronic topical administration of WIN-55-212-2 maintinas a reduction in IOP in a rat glaucoma model without adverse effects. Exp. Eye Res. 82(5):753-9). More specifically, ocular hypertension was induced in Sprague-Dawley rats by ligating 3 of 4 episcleral veins of the right eye using 9.0 nylon sutures under anesthesia with 3 mg/Kg acepromazine and 20 mg/Kg ketamine. Within 6 wk, IOP increased by at least 5 mm Hg in the operated eye. This intervention produced at least a 30% increase in IOP in the operated eye and lasted for up to 60 weeks. During this time, a 30% loss of retinal function was documented by ERG. […] Thus, the model accurately mimics the progressive damage that occurs in patients with glaucoma.
(§3) Measurements of Intraocular Pressure. IOP elevation was measured under mild sedation using a calibrated Goldmann tonometer modified for rats. Three determinations were averaged for each eye. To account for diurnal variation, all IOP's were measured between 11 am and 1 pm during the daily trough period.
Combination Therapy. Since cannabinoids and timolol, which are both known to reduce IOP, have different mechanisms of action, there is potential for a synergistic effect. The combination of timolol and a synthetic cannabinoid (WIN55 212-2, O-1812, or O-2545) to reduce IOP in a chronic rat model of ocular hypertension was examined. Surgical ligation of three of the four episcleral veins in one eye of Sprague Dawley rats caused a long lasting (>44 week) increase in IOP. IOP was measured by Goldmann tonometry at baseline (−30), 0, 30, 60 and 120 min, as was heart rate and blood pressure. For combination therapy, after baseline IOP measurement, timolol 0.5% was applied topically followed 30 min later by WIN55 212-2 1.0%, O-1812 1.0%, or O-2545 1.0%. In another experiment, O-1812 1.0% and O-2545 1.0% were administered simultaneously. An analysis for ocular irritation was performed by slit lamp examination (SLE) at baseline and 150 min.

[3] = Ocular toxicity by slit lamp, MacDonald-Shadduck scoring; type: in vivo, rats; conditions: topical
Description: Slit Lamp Biomicroscopy/Digital Photography. Ocular toxicity was measured using slit lamp examination and performed using a modified MacDonald-Shadduck semi-quantitative scale for ocular irritation (McDonald, T. O. and Shadduck, J. A. (1987) Eye irriation. In Dermatotoxicology. 3rd Ed. Mazulli and Maibach. Pp 641-696. Washington, DC: Hemisphere). All eyes were examined by a slit lamp fitted with a color digital camera for digital photography of conjunctiva, cornea, and anterior camber. Images were stored and analyzed using a digital video system (Lombart Instruments DVS System). At baseline and following drug administration, eyes were examined for conjunctival congestion, conjunctival discharge, corneal edema, aqueous flare, fibrin, and iris congestion (Samudre, S. S. et al. (2004) Comparison of Topical Steroids for Acute Anterior Uveitis. J. Ocul. Pharmacol. Ther. 20 (6):533-547). Knowledgeable, masked observers rated each factor on a semi-quantitative four point scale where zero was coded normal, 1=minimal, 2=moderate and 3=severe involvement. Results were compared to the normal baseline evaluation performed before treatment and also with the untreated contralateral eye.

optic nerve = test: Rat NMDA model: optic nerve histology; type: in vivo
Description: as §1
Histology. For retinal flat mounts, retinas were dissected from formalin fixed whole eyes, mounted on superfrost glass slides, stained with hematoxylin and eosin and digitally photographed. […]

Rat NMDA Model = test: Rat NMDA model: electroretinogram a-wave; type: in vivo; conditions: for Effect of CB1 antagonist SR-141716 on the action of the drug (ERG a-wave): drug 0.1% + SR-141716 2 mM
Description: as §1
Electroretinogram. In normal retina, full field electroretinography (ERG) stimulates both rods (a-waves) and cones (b-waves). A decrease in their amplitudes indicates retinal functional damage. Scotopic ERG changes were measured in rats that were dark-adapted for at least 4 hours. Eyes were then dilated with 1% atropine after which 0.5% proparacaine and methylcellulose gel (GPS 2.5%) was applied topically. Custom made AgCl electrodes were placed on the apex of the cornea. Stimuli consisted of 10-μsec flashes of unattenuated white light generated by a Ganzfeld bowl photo stimulator. Data from each eye were recorded separately with a driver amplifier and acquired digitally via DASYLab. The contralateral normal eye served as an age matched negative control, e.g. response in a normal, undamaged eye. Differences in amplitude of the a- and b-waves between the operated eye and the contralateral eye were calculated and analyzed by ANOVA and t-test.

[4] = test system: IOP in a rat glaucoma model; test: IOP after topical application in chronic rat glaucoma model; type: in vivo, Sprague-Dawley rats; conditions: for Effect on IOP compared to baseline or vehicle: all concentrations tested
Source text: as §2, §3
Therapeutic Regimen. For IOP Measurements (Topical application) Baseline IOP, heart rate, blood pressure and normal ocular anatomy were documented prior to drug administration. The drugs WIN 55-212-2 (0.1%, 1.0%), O-1812 (0.01%, 0.1%, 1.0%), O-2545 (0.1%, 1.0%) were all dissolved in Tocrisolve™ (vehicle). IOP, heart rate, and blood pressure were measured prior to and after 30, 60 and 120 min after topical administration. Contralateral eyes served as vehicle treated controls.

[5] = Corneal thickness by in vivo confocal microscopy; parameters: species or system rats; conditions: 1.0% treated eye (OD) vs contralateral control (OS)
Description: Confocal Microscopy. Repeated noninvasive in vivo visualization of cornea and anterior segments for the presence, location and number of inflammatory cells, as well as fibrin, hyper-refractile bodies and changes in epithelial, stromal and endothelial cell morphology was performed by confocal microscopy. Prior to applanation, rats were sedated and 0.5% proparacaine was applied topically. Data was analyzed using the Metamorph imaging system (Universal Imaging, Downingtown, Pa.).

[6] = test system: peripheral retinal ganglion cell; conditions: cited from earlier work

| Compound | Preservation of the number of RGCs [1] | IOP at 120 min (% Baseline) [2] [% Baseline] | Ocular toxicity / signs of ocular inflammation [3] | Protection of optic nerve against NMDA induced damage (optic nerve) | Effect of CB1 antagonist SR-141716 on the action of the drug (ERG a-wave) (Rat NMDA Model) | IOP after 60 min (% of Baseline) ([4]; 0.01% topical, 60 min) | IOP after 60 min (% of Baseline) ([4]; 0.10% topical, 60 min) | IOP after 60 min (% of Baseline) ([4]; 1.0% topical, 60 min) | Effect on IOP compared to baseline or vehicle ([4]; topical) | Time for which significant IOP reduction was maintained ([4]; 1.0% topical) | Effect on IOP at 30 min ([4]; 1.0% topical) | further results |
| --- | --- | --- | --- | --- | --- | --- | --- | --- | --- | --- | --- | --- |
| C[C@H](CO)NC(=O)CCC/C=C\C/C=C\C/C=C\C/C=C\C(C)(C)CCCCC#N [Compound O-1812] | preserved the number of RGCs | 62.0 ± 0.5 | non-toxic | prevented much of the NMDA induced damage | effectively blocked | 81.9 ± 2.7 % of Baseline | 78.3 ± 3.1 % of Baseline | 61.9 ± 3.9 % of Baseline | effective; also recorded: significantly reduced IOP | – | – | RGCs preserved [1]: up to 83%; Retinal function, A-wave ERG (percentage of the contralateral normal eye) (Rat NMDA Model; NMDA intravitreal, drug 0.1%): more effectively preserved retinal function; Effect of CB2 antagonist SR-144258 on the action of the drug (ERG a-wave) (Rat NMDA Model; drug 0.1% + SR-144258 2 mM): no effect; Effect on IOP ([4]; 0.01% topical): significantly reduced IOP; Time for which the IOP decrease was maintained ([4]; 0.01% topical): ≤ 60 min; Relative efficacy in IOP reduction ([4]; 1.0% topical): most efficacious; Onset of IOP lowering action ([4]; topical): most rapid onset |
| CC1=CC[C@@H]2[C@@H](C1)c1c(O)cc(C(C)(C)CCCCn3ccnc3)cc1OC2(C)C [Compound O-2545] | preserved the number of RGCs | 65.5 ± 0.8 | – | prevented much of the NMDA induced damage | effectively blocked | – | 77.8 ± 2.8 % of Baseline | 76.4 ± 2.8 % of Baseline | – | up to 120 min | significantly reduced IOP | Time for which significant IOP reduction was maintained ([4]; 0.1% topical): up to 120 min; Effect on IOP at 30 min ([4]; 0.1% topical): significantly reduced IOP; Duration of IOP lowering action ([4]; topical): longest duration of action |
| Cc1c(C(=O)c2cccc3ccccc23)c2cccc3c2n1[C@H](CN1CCOCC1)CO3 [WIN 55-212-2, reference compound] | – | 48.8 ± 2.8 | non-toxic | – | – | 83.1 ± 5.5 % of Baseline | – | 58.3 ± 5.6 % of Baseline | effective | up to 120 min | significantly reduced IOP | Corneal thickness [5]: remained unchanged; Effect on IOP compared to vehicle or baseline ([4]; 0.1% topical): not significantly different from either vehicle or baseline; Effect on IOP at 60 min ([4]; 1.0% topical, 60 min): significantly reduced |
| N=C(N)NN [aminoguanidine] | – | – | – | – | – | – | – | – | – | – | – | Less peripheral retinal ganglion cell loss compared to untreated rats [6]: 26% |

Reference: patent US20080051393A1, “Novel cannabinoids and methods of use” (Eastern Virginia Medical School, priority 2006, published 2008)
